The text below walks through data of ChEMBL document CHEMBL4765313, “Synthesis, in vitro evaluation and molecular docking of a new class of indolylpropyl benzamidopiperazines as dual AChE and SERT ligands for Alzheimer's disease” (Eur J Med Chem, 2020).

The source made the active and inactive calls. The rule behind the calls is not given here.

One data set relates to SH-SY5Y. Description: Cytotoxicity against human SH-SY5Y cells assessed as reduction in cell viability incubated for 72 hrs by MTT assay. Type of data set: ADME, cell-based.
The next data set has as its target Acetylcholinesterase (Homo sapiens, UniProt P22303). Description: Inhibition of human plasma AChE using acetylthiocholine iodide as substrate preincubated for 15 mins followed by substrate addition and measured after 10 mins by Ellman's method. Type of data set: cell-free. (In general: In Ellman's method for cholinesterases, released thiocholine reacts with DTNB.)

The next data set relates to HEK293. The data set can be described thus: Cytotoxicity against human HEK293 cells assessed as reduction in cell viability incubated for 72 hrs by MTT assay. Type of data set: ADME, cell-based. Conditions: HEK293, 72 h. For orientation: Formazan colour is commonly taken as a measure of viable cells.
For data set [1], the system named is N2a. The data set can be described thus: Effect on APP in mouse N2a cells transfected with human APP695 by Western blot analysis. In kind it is functional, cell-based. A general note: In western blotting, separated proteins are transferred to a membrane and probed.
For data set [2], the system named is N2a. The data set can be described thus: Decrease in APP-C99 in mouse N2a cells transfected with human APP695 by Western blot analysis. Type of data set: functional, cell-based.
Data set [3] addresses Sodium-dependent serotonin transporter (Homo sapiens, UniProt P31645). The data set can be described thus: Displacement of [3H]paroxetine from human SERT expressed in human HEK293 cells incubated for 30 mins by liquid scintillation counting analysis. Type of data set: cell-based.
A short description of data set [4]: Reduction of beta-Amyloid40 level in mouse N2a cells transfected with human APP695 at 10 uM incubated for 16 hrs by ELISA relative to control. In kind it is functional.
Data set [5] is described as follows: Solubility of compound at pH 7.4 at 1 to 100 uM. Type of data set: physicochemical. As to conditions: buffer, pH 7.4, 100 µM; dose 1-100 µM.

Sequence of Acetylcholinesterase (P22303 whole entry): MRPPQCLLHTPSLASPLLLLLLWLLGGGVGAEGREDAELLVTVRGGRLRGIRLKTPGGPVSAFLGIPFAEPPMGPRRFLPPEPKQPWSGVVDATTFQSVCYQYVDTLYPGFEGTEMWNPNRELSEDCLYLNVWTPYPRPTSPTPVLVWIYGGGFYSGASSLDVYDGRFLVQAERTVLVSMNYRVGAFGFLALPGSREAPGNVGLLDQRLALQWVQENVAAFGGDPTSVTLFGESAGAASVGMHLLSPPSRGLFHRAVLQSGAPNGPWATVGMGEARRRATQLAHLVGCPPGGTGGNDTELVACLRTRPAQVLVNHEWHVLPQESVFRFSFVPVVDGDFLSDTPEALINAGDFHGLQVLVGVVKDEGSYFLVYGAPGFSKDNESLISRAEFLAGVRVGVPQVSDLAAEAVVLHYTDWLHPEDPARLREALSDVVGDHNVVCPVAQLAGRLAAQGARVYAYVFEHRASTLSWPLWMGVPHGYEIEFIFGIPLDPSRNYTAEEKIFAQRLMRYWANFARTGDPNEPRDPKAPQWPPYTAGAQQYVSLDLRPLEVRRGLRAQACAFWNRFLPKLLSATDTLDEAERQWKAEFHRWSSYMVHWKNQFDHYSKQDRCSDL
Sequence of Sodium-dependent serotonin transporter (P31645 whole entry): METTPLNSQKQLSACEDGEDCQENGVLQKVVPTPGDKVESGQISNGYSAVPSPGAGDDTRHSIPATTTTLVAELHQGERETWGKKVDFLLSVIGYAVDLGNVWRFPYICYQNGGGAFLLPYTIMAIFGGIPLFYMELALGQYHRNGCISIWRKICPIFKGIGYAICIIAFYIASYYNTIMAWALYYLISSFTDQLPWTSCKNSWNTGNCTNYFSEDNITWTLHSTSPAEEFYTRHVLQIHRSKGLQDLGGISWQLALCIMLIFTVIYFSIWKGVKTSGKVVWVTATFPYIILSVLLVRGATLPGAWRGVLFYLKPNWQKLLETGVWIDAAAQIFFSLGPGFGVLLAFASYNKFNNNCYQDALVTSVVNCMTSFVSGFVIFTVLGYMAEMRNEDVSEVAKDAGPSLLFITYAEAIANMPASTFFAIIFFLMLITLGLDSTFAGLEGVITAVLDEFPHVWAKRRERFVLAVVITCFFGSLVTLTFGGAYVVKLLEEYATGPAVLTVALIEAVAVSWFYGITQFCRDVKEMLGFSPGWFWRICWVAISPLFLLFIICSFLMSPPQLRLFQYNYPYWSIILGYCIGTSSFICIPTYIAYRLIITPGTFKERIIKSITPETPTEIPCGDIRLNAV

By IC50 is commonly meant the point on the concentration scale where inhibition reaches its midpoint. What is called inhibition is the relative decrease from the control value, in per cent. As for `O=C(CN1CCN(C(=O)c2cccc(Br)c2)CC1)N1CCN(CCCc2c[nH]c3ccccc23)CC1`, the IC50 in the data set on SH-SY5Y was 80.5 µM; against Acetylcholinesterase it was 23 µM; with HEK293, 80.7 µM; in data set [3], more than 1 mM. Further, the outcome in the data set on N2a [1] was inactive. Moreover, the inhibition result in the data set on N2a [2] was “Active”. At 10 µM the inhibition in data set [4] was 50%. For the same compound, the solubility entry in data set [5] was “Soluble”.
